Ends that are not written are not given here.
Key:
p65 = target: T1, p65 (Homo sapiens, UniProt Q04206); experiment: Co-IP of p65 by SFB-tagged RL peptide in 293T cells; assay type: binding; settings: 48 hours after transfection
T1 construct: endogenous in cells; host or cells: 293T
Protocol: FIGS. 10A-G. (A) Schematic diagram depicting a set of RB-N recombinant protein constructs. Western blot analysis of p65 proteins in PC-3 cells whole cell lysate pulled down by GST or GST-RB-N recombinant proteins. Stars indicate expected molecular weight. (B) Western blot analysis of in vitro transcribed and translated p65 proteins pulled down by GST or GST-RB recombinant proteins. Stars indicate expected molecular weight. (C) Western blot analysis of WCL and co-IP samples in 293T cells 48 h after transfected with indicated constructs. (D) Schematic diagram depicting an evolutionally conserved R-linker region in the N-terminal of RB. FIG. 10D discloses SEQ ID NOS 265 and 271-274, respectively, in order of appearance. (E) Western blot analysis of WCL and co-IP samples in 293T cells 48 hours after transfected with indicated constructs. (F) PC-3 cells were transfected with indicated plasmids. Western blot analysis of HA-RB proteins in PC-3 whole cell lysate pulled down by GST or GST-p65 recombinant proteins. Stars indicate expected molecular weight. (G) Schematic diagram depicting fully positively charged RB-N allows otherwise negatively charged by S249/T252 phosphorylation to bind to negatively charged 166FSLMV170 motif (SEQ ID NO: 286) in EID1. FIG. 10G discloses SEQ ID NOS 265-266 and 275, respectively, in order of appearance. […]

PTEN-CaP8 tumors = experiment: FACS of tumor-infiltrating immune cells in PTEN-CaP8 tumors; assay type: in vivo, mouse; settings: 12 Gy
Protocol: FIGS. 6A-J. The small S249/T252 phosphorylation-mimicking polypeptide of RB blocks irradiation-induced PD-L1 expression and inhibits cancer immune evasion. (A, B) PC-3 cells were infected with lentivirus expressing control shRNA or p65-specific or shRNA. 24 hours after puromycin selection, cells were treated with or without gamma irradiation (IR) (12 Gy). 48 hours after IR treatment, cells were harvested for western blotting analysis (A) and RT-qPCR analysis (B). All data were shown as mean values±SD (n=3). * P<0.05, ** P<0.01, *** P<0.001. (C, D) PC-3 cells were treated with without gamma irradiation (12 Gy). Cells were harvested at the indicated time point for western blotting analysis (C) and RT-qPCR analysis (D). All data were shown as mean values±SD (n=3). * P<0.05, ** P<0.01, *** P<0.001. (E) Western blot analysis of WCL and co-IP samples in PC-3 cells 48 hours after treated with or without gamma irradiation (12 Gy). […] (J) The absolute number of CD45^+CD8^+ T cells, CD45^+CD4^+ T cells, and CD11b^+Gr1^+ myeloid cells of implanted PTEN-CaP8 in tumors treated with indicated agents was analyzed by FACS. […]
For flow cytometry analysis of mouse tissue samples, tumors were cut into small pieces and digested with 2 mg/mL collagenase (Sigma) in DMEM for 1 hour at 37° C. […] After incubated with antibody for 30 minutes, cells were washed with PBS and analyzed on a flow cytometer.

T1 sequence (Q04206 whole entry): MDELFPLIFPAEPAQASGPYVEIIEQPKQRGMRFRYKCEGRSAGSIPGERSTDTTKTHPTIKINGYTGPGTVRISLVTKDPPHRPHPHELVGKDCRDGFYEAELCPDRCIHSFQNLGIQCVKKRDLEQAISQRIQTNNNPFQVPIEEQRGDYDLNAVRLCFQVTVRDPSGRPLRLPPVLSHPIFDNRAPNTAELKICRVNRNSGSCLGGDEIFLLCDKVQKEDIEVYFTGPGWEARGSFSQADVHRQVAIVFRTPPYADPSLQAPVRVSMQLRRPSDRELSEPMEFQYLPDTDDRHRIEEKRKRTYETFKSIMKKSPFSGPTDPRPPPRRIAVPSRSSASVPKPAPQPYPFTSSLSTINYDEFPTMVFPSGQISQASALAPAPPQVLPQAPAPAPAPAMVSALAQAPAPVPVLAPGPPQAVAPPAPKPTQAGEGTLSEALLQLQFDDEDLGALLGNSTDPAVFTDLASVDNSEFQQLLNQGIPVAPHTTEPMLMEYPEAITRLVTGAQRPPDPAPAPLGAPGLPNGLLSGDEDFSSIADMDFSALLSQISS

Substance: RL-S249D/T252D: S249/T252 phospho-mimicking R-Linker (RL) peptide: fragment of RB-N containing 21 amino acids surrounding S249/T252, expressed SFB-tagged or by lentivirus (NGDPRDPRRGQNRSARIAKQL; also: expressed SFB-tagged (tag left off))
- immunoprecipitation of p65 by SFB-tagged RL peptide (p65): effectively immunoprecipitated
- CD11b+Gr1+ myeloid cells in tumors, agent combined with irradiation (PTEN-CaP8 tumors): sharp decrease
- CD45+CD8+ and CD45+CD4+ T cell infiltration in tumors, agent combined with irradiation (PTEN-CaP8 tumors): dramatic increase
